The values that follow come from US7727965B2, “C-glycosylisoflavones having alkylaminoalkoxyl substituent, preparation and use of the same” (Hainan Yangpu New & Special Medicine Co., Ltd., priority 2003, dated 2010).

Data set [1] deals with Kunming mice. Kind of data set: Normal pressure hypoxia-resistance test in mice. The settings on record: 60 mg/Kg intraperitoneal, 0.5 hours before sealing in 250 ml bottles, examples tested as hydrochloride salts. The data set is classed as in vivo. As for the experimental part: This test was carried out by a common method familiar to those skilled in the art. 32 Kunming mice (16 males vs. 16 females, body weights ranging from 18 to 20 g) were randomly divided into a control group and a administration group (each group having 16 animals), wherein the dosage was 60 mg/Kg mouse and 0.2 ml for each animal. After 0.5 hours of the intraperitoneal injection of test solutions, the mice were placed and sealed in 250 ml wide-mouthed bottles with ground stoppers. The times of death were recorded. Statistical analysis was conducted separately with respect to the blank control group and puerarin group, and P values were calculated.

For data set [2] the following is noted: cited from earlier work.
For data set [3] the following is noted: 568 patients administered with puerarin; cited from earlier work.
For data set [4] the following is noted: cited from earlier work. This is another data set of the same source.

Take `O=c1c(-c2ccc(OCCCN3CCOCC3)cc2)coc2c([C@@H]3O[C@H](CO)[C@@H](O)[C@H](O)[C@H]3O)c(O)ccc12` [Example 4, 4′-(3-N-morpholinylpropoxy)-7-hydroxy-8-β-D-(1-deoxyglucosyl)isoflavone]: the “Time to death” value in data set [1] was found to be 75.3 ± 7 min.

`CCN(CC)CCCOc1ccc(-c2coc3c([C@@H]4O[C@H](CO)[C@@H](O)[C@H](O)[C@H]4O)c(O)ccc3c2=O)cc1` [Example 6, 4′-(3-N-diethylaminopropoxy)-7-hydroxy-8-β-D-(1-deoxyglucosyl)-isoflavone]: the “Time to death” value in data set [1] came out at 73.5 ± 9 min. On the same count and under the same terms, the value for `CCCN(CCC)CCCOc1ccc(-c2coc3c([C@@H]4O[C@H](CO)[C@@H](O)[C@H](O)[C@H]4O)c(O)ccc3c2=O)cc1` [Example 7, 4′-[3-N-di(n-propyl)aminopropoxy]-7-hydroxy-8-β-D-(1-deoxyglucosyl)-isoflavone] was 69.8 ± 5 min.

On to `CCN(CC)CCCCOc1ccc(-c2coc3c([C@@H]4O[C@H](CO)[C@@H](O)[C@H](O)[C@H]4O)c(O)ccc3c2=O)cc1` [Example 14, 4′-(4-N-diethylaminobutoxy)-7-hydroxy-8-β-D-(1-deoxyglucosyl)isoflavone], for which the “Time to death” value in data set [1] was determined as 79.1 ± 8 min. `CN1CCN(CCCCOc2ccc(-c3coc4c([C@@H]5O[C@H](CO)[C@@H](O)[C@H](O)[C@H]5O)c(O)ccc4c3=O)cc2)CC1` [Example 17, 4′-(4-N-methylpiperazinylbutoxy)-7-hydroxy-8-β-D-(1-deoxyglucosyl)-isoflavone]: the “Time to death” value in data set [1] was determined as 59.8 ± 7 min. Still for that read-out and setting: the value for `CCN1CCN(CCCCOc2ccc(-c3coc4c([C@@H]5O[C@H](CO)[C@@H](O)[C@H](O)[C@H]5O)c(O)ccc4c3=O)cc2)CC1` [Example 18, 4′-(4-N-ethylpiperazinylbutoxy)-7-hydroxy-8-β-D-(1-deoxyglucosyl)-isoflavone] was 75.9 ± 6 min.

Consider `O=c1c(-c2ccc(O)cc2)coc2c([C@@H]3O[C@H](CO)[C@@H](O)[C@H](O)[C@H]3O)c(O)ccc12` [puerarin, 4′,7-dihydroxy-8-β-D-C-glycosylisoflavone], for which the “solubility of puerarin in 4.3% PVP aqueous solution” value in data set [2] (4.3% PVP aqueous solution) is 1.332 g/100 ml. Besides, the “stability in an aqueous solution” value in data set [2] (relatively high pH value) is given as “poor stability”. Moreover, in data set [2] (water), the “solubility of puerarin in water” value is recorded as 0.462 g/100 ml. Further, the “Time to death” value in data set [1] was 48.3 ± 5 min. Further, the “total incidence rate of febrile” value in data set [3] is 5.81%. Moreover, the oral bioavailability entry in data set [4] was “about 30%”.
